Drawing on patent US20110065597A1, “SINGLE MOLECULE PROTEOMICS WITH DYNAMIC PROBES” (LI-COR, INC., priority 2009, published 2011), this text covers photostability and diffusion-limited binding rate for two compounds.

The nature of data set [1]: Photostability of dye-labeled secondary antibody in fixed NIH3T3 cells (fluorescence intensity vs exposure number). The class given is physicochemical. Conditions: FIG. 3B, compared with IRDye 680 and Alexa Fluor 680. As to the method: LI-COR IRDye 700DX is shown in FIG. 3A which has multiple charged groups. NIH3T3 cells were fixed and permeabilized, followed by incubation with rabbit anti-histone primary antibody and goat anti-rabbit secondary antibody labeled with IRDye 680, IRDye 700DX, or Alexa Fluor 680. Images were recorded in movies of 2-second exposures by a Roper Micromax CCD in a Zeiss Axiovert S100 microscope. The mean fluorescence intensity of the field is plotted against exposure number (FIG. 3B).

A further data set has as its target neutravidin (Gallus gallus, UniProt P02701). Conditions: at each individual immobilized biotin molecule, picomolar neutravidin in solution; cited from earlier work.

SMILES strings stand for the structures.

neutravidin, sequence (P02701 25-152): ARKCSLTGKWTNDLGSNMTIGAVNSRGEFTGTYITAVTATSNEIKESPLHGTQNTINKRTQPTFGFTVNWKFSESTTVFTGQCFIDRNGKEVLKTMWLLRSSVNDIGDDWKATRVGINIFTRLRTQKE

Take `C[Si](C)(CCC[N+](CCCS(=O)(=O)[O-])(CCCS(=O)(=O)[O-])CCCS(=O)(=O)[O-])O[Si]1(O[Si](C)(C)CCC[N+](CCCS(=O)(=O)[O-])(CCCS(=O)(=O)[O-])CCCS(=O)(=O)[O-])n2c3c4ccccc4c2N=C2N=C(N=c4c5ccccc5c(n41)=NC1=NC(=N3)c3ccccc31)c1cccc(OCCCOC(=O)NCCCCCC(=O)ON3C(=O)CCC3=O)c12.[Na+].[Na+].[Na+].[Na+]` (centres unmarked) [IRDye, 700DX]: in data set [1], the photostability result was “superior”.

Turning to `O=C(O)CCCC[C@@H]1SC[C@@H]2NC(=O)N[C@@H]21` [biotin], the diffusion-limited binding rate on neutravidin is 1.9e+08 M⁻¹ s⁻¹.
